From patent publication US9902733B2, “Furopyridines as inhibitors of protein kinases” (MASARYKOVA UNIVERZITA, priority 2014, dated 2018)

Tests used:
Type in all cases: biochemical
[1] = biological target: T1, HIPK2(h) (Homo sapiens, UniProt Q9H2X6); assay: HIPK2 KinaseProfiler radiometric protein kinase assay; conditions: 10 μM ATP, 40 minutes at room temperature
T1 construct: purchased Merck Millipore (KinaseProfiler service)
Procedure: (§1) In vitro essays were performed by the company Merck Millipore in their KinaseProfiler radiometric protein kinase assay as paid commercial service. The compounds IC50 values for inhibition of individual protein kinases were determined. Dose-response curves were plotted from inhibition data generated, each in duplicate, from 10 point serial dilutions of inhibitory compounds. Concentration of compound was plotted against % kinase activity. To generate IC50 values, the dose-response curves were fitted to a standard sigmoidal curve and IC50 values were derived by standard nonlinear regression analysis.
(§2) All tested compounds were prepared in 100% DMSO to final assay concentrations either 0.5 mM (for the concentration row A, see below) or 0.05 mM (for the concentration row B). This working stock of the compound was added to the assay well as the first component in the reaction, followed by the remaining components as detailed below. The stock solution was added to the individual assay wells in such amounts that the concentrations of the compound were either in the row A (0.001 μM, 0.003 μM, 0.01 μM, 0.03 μM, 0.1 μM, 0.3 μM, 1.0 μM, 3.0 μM, and 10.0 μM) or in the row B (0.0001 μM, 0.0003 μM, 0.001 μM, 0.003 μM, 0.01 μM, 0.03 μM, 0.1 μM, 0.3 μM, and 1.0 μM). There was no pre-incubation step between the compound and the kinase prior to initiation of the reaction.
(§3) The positive control wells contained all components of the reaction, except the compound of interest; however, DMSO (at a final concentration of 2%) was included in these wells to control for solvent effects. The blank wells contained all components of the reaction, with staurosporine as a reference inhibitor replacing the compound of interest. This abolished kinase activity and established the base-line (0% kinase activity remaining).
HIPK2(h) was diluted in the buffer (20 mM MOPS, 1 mM EDTA, 0.01% Brij-35, 5% Glycerol, 0.1% β-mercaptoethanol, 1 mg/mL BSAs) to the concentration of 1.01 mg/mL prior to addition to the reaction mix.
(§4) The above stock solution of HIPK2(h) was added to a mixture containing 8 mM MOPS pH 7.0, 0.2 mM EDTA, and 0.33 mg/mL myelin basic protein in such amount that the resulting concentration of HIPK2(h) was 1.4 nM. This mixture was added to the stock solution of the tested compound. The reaction was initiated by the addition of the MgATP mix in such amount that the resulting concentration of Mg acetate in the reaction mixture was 10 mM and [γ-^33P-ATP] (specific activity approx. 500 cpm/pmol) was 10 μM. After incubation for 40 minutes at room temperature, the reaction was stopped by the addition of 3% phosphoric acid solution. 10 μL of the reaction was then spotted onto a P30 filtermat and washed three times for 5 minutes in 75 mM phosphoric acid and once in methanol prior to drying and scintillation counting.

[2] = biological target: T2, CLK2 (h) (Homo sapiens, UniProt P49760); assay: CLK2 KinaseProfiler radiometric protein kinase assay; conditions: radiometric, 15 μM ATP, 40 minutes at room temperature; read-out: CLK2 IC50
T2 construct: purchased Merck Millipore (KinaseProfiler service)
T2 sequence (P49760 whole entry): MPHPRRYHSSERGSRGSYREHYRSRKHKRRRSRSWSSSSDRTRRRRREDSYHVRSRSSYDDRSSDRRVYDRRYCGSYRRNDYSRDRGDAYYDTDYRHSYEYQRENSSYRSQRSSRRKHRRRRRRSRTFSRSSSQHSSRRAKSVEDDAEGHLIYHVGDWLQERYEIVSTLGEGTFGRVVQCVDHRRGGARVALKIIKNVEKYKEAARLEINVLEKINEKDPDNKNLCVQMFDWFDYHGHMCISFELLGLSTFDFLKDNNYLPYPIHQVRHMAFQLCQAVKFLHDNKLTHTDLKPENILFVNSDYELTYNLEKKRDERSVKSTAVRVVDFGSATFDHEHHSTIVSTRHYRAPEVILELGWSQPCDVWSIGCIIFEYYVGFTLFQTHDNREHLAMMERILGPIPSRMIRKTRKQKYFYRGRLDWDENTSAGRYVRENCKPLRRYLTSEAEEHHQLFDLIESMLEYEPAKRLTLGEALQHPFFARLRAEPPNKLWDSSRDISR
Procedure: as §1, §2, §3
CLK2 (h) was diluted in the buffer (20 mM MOPS (3-(N-morpholino)propanesulfonic acid), 1 mM EDTA (ethylendiaminotetraacetic acid), 0.01% Brij-35 (detergent), 5% Glycerol, 0.1% β-mercaptoethanol, 1 mg/mL BSAs) to the concentration of 1.01 mg/mL prior to addition to the reaction mix.
as §4, with “solution of CLK2(h) was added” for “solution of HIPK2(h) was added”, “EDTA, and 20 μM […](p) EDEEE in such” for “EDTA, and 0.33 mg/mL myelin basic protein in such”, “concentration of CLK2(h) was 2.1” for “concentration of HIPK2(h) was 1.4”, “CLK2(h) was 2.1 nM. This” for “HIPK2(h) was 1.4 nM. This”, “cpm/pmol) was 15 μM. After” for “cpm/pmol) was 10 μM. After”

[3] = biological target: T3, CLK4 (h) (Homo sapiens, UniProt Q9HAZ1); assay: CLK4 KinaseProfiler radiometric protein kinase assay; conditions: 15 μM ATP, 40 minutes at room temperature
T3 construct: purchased Merck Millipore (KinaseProfiler service)
T3 sequence (Q9HAZ1 whole entry): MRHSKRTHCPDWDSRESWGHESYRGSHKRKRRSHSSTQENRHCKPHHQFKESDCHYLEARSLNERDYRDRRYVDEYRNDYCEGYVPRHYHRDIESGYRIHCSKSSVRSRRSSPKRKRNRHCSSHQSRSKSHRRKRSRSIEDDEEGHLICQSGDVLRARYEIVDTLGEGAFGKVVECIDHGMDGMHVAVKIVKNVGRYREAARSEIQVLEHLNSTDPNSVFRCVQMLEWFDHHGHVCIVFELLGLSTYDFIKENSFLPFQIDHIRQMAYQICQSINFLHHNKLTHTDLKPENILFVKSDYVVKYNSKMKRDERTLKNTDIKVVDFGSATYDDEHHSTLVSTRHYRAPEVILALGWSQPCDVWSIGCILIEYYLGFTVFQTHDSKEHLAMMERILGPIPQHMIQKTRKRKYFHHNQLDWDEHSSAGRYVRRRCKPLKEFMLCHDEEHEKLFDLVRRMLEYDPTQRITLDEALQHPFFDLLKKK
Procedure: as §1, §2, §3
CLK4 (h) was diluted in the buffer (20 mM MOPS, 1 mM EDTA, 0.01% Brij-35, 5% Glycerol, 0.1% β-mercaptoethanol, 1 mg/mL BSAs) to the concentration of 1.01 mg/mL prior to addition to the reaction mix.
as §4, with “solution of CLK4(h) was added” for “solution of HIPK2(h) was added”, “EDTA, and 200 μM […](p) EDEEE in such” for “EDTA, and 0.33 mg/mL myelin basic protein in such”, “concentration of CLK4(h) was 140.8” for “concentration of HIPK2(h) was 1.4”, “CLK4(h) was 140.8 nM. This” for “HIPK2(h) was 1.4 nM. This”, “cpm/pmol) was 15 μM. After” for “cpm/pmol) was 10 μM. After”

[4] = biological target: T4, HIPK3(h) (Homo sapiens, UniProt Q9H422); assay: HIPK3 KinaseProfiler radiometric protein kinase assay; conditions: 15 μM ATP, 40 minutes at room temperature
T4 construct: purchased Merck Millipore (KinaseProfiler service)
T4 sequence (Q9H422 whole entry): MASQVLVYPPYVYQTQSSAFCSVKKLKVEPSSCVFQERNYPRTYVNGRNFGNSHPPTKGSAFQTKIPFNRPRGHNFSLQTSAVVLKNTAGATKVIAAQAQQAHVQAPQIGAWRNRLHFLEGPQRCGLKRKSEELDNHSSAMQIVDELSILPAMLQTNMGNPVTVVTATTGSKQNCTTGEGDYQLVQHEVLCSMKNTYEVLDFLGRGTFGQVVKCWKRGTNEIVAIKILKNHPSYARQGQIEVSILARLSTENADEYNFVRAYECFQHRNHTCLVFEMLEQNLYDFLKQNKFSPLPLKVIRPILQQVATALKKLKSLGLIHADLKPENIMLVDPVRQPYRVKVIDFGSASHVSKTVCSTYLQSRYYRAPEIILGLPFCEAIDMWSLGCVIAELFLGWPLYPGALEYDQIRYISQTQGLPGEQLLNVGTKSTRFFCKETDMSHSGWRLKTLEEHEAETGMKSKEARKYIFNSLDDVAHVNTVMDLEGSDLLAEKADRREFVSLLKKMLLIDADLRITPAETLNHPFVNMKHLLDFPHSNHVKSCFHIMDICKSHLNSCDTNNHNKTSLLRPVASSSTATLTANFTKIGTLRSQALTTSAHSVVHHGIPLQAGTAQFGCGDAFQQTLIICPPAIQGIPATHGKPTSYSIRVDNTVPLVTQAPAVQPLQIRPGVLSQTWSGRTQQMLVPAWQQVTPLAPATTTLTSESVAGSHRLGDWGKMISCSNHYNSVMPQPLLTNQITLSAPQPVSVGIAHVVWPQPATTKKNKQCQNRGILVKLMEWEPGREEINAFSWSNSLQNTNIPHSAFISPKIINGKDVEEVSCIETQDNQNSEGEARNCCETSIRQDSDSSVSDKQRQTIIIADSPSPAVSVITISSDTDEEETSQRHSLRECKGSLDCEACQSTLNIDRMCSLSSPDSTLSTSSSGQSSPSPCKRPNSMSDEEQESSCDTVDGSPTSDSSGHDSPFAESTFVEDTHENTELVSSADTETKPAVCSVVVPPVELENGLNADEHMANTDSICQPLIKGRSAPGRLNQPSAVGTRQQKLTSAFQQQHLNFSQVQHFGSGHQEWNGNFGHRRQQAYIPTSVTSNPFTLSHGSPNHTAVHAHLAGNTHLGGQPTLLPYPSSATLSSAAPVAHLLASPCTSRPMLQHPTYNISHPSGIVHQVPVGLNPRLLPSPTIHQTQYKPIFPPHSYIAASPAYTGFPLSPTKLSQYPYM
Procedure: as §1, §2, §3
HIPK3(h) was diluted in the buffer (20 mM MOPS, 1 mM EDTA, 0.01% Brij-35, 5% Glycerol, 0.1% β-mercaptoethanol, 1 mg/mL BSAs) to the concentration of 1.01 mg/mL prior to addition to the reaction mix.
(§5) The above stock solution of HIPK3(h) was added to a mixture containing 8 mM MOPS pH 7.0, 0.2 mM EDTA, and 1.0 mg/mL myelin basic protein in such amount that the resulting concentration of HIPK3(h) was 6.4 nM. This mixture was added to the stock solution of the tested compound. The reaction was initiated by the addition of the MgATP mix in such amount that the resulting concentration of Mg acetate in the reaction mixture was 10 mM and [γ-^33P-ATP] (specific activity approx. 500 cpm/pmol) was 15 μM. After incubation for 40 minutes at room temperature, the reaction was stopped by the addition of 3% phosphoric acid solution. […]

[5] = biological target: T5, HIPK1(h) (Homo sapiens, UniProt Q86Z02); assay: HIPK1 KinaseProfiler radiometric protein kinase assay; conditions: 45 μM ATP, 40 minutes at room temperature
T5 construct: purchased Merck Millipore (KinaseProfiler service)
T5 sequence (Q86Z02 whole entry): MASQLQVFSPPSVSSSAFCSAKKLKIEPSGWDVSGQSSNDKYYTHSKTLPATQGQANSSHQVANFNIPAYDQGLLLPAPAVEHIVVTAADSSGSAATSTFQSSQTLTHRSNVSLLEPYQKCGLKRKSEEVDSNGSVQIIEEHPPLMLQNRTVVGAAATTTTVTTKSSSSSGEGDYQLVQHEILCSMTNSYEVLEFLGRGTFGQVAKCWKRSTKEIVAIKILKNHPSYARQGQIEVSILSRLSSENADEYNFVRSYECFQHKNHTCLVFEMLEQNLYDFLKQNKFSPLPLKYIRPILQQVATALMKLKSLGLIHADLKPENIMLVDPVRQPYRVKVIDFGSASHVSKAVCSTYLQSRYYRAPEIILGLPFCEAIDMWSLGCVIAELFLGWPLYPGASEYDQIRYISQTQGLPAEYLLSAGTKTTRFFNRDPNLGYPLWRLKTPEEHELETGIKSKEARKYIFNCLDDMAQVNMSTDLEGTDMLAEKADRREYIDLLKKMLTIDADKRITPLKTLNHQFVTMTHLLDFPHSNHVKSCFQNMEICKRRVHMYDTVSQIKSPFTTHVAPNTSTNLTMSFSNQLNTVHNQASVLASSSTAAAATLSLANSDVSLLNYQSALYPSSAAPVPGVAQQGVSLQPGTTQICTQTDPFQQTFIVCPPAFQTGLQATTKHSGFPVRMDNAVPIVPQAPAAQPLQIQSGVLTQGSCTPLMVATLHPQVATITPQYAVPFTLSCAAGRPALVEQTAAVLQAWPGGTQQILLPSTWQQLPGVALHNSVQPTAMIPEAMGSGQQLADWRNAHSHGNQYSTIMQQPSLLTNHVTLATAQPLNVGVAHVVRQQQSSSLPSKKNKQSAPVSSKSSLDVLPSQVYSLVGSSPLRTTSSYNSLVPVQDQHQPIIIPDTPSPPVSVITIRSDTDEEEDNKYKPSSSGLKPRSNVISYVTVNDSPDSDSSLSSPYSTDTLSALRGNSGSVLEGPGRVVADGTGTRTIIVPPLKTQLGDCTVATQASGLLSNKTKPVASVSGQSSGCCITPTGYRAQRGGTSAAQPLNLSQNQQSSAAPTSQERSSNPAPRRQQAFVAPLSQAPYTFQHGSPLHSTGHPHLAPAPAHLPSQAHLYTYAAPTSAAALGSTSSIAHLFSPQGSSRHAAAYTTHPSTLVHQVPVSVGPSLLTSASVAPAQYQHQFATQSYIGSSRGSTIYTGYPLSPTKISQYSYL
Procedure: as §1, §2, §3
HIPK1(h) was diluted in the buffer (20 mM MOPS, 1 mM EDTA, 0.01% Brij-35, 5% Glycerol, 0.1% β-mercaptoethanol, 1 mg/mL BSAs) to the concentration of 1.01 mg/mL prior to addition to the reaction mix.
as §4, with “solution of HIPK1(h) was added” for “solution of HIPK2(h) was added”, “concentration of HIPK1(h) was 4.7” for “concentration of HIPK2(h) was 1.4”, “HIPK1(h) was 4.7 nM. This” for “HIPK2(h) was 1.4 nM. This”, “cpm/pmol) was 45 μM. After” for “cpm/pmol) was 10 μM. After”

[6] = biological target: T6, TRKA(h) (Homo sapiens, UniProt P04629); assay: TRKA KinaseProfiler radiometric protein kinase assay; conditions: 120 μM ATP, 40 minutes at room temperature
T6 construct: purchased Merck Millipore (KinaseProfiler service)
T6 sequence (P04629 33-796): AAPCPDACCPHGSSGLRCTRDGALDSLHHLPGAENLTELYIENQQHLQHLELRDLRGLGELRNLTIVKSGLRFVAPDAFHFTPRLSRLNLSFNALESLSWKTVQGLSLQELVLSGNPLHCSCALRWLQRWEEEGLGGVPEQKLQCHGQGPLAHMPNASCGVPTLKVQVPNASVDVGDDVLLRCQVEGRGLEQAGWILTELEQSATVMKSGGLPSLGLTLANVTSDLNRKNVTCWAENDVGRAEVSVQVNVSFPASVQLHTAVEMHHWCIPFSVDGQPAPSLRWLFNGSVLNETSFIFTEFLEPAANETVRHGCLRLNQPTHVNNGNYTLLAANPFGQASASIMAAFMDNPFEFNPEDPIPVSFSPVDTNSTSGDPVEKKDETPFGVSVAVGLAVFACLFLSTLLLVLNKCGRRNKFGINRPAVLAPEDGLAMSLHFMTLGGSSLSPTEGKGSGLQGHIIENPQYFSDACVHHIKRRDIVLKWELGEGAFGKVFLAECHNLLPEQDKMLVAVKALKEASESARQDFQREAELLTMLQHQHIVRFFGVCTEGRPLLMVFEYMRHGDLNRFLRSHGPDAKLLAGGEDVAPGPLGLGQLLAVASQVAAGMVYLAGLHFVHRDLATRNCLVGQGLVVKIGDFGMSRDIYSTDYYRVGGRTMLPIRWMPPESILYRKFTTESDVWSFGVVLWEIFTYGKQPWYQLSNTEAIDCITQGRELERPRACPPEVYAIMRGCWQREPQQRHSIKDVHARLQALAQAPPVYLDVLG
Procedure: as §1, §2, §3
TRKA(h) was diluted in the buffer (20 mM MOPS, 1 mM EDTA, 0.01% Brij-35, 5% Glycerol, 0.1% β-mercaptoethanol, 1 mg/mL BSAs) to the concentration of 1.01 mg/mL prior to addition to the reaction mix.
as §5, with “TRKA(h)” for “HIPK3(h)”, “250 μM KKKSPGEYVNIEFG,” for “1.0 mg/mL myelin basic protein”, “28.2” for “6.4”, “120” for “15”

[7] = biological target: T7, FLT3(h) (Homo sapiens, UniProt P36888); assay: FLT3 KinaseProfiler radiometric protein kinase assay; conditions: 200 μM ATP, 40 minutes at room temperature
T7 construct: purchased Merck Millipore (KinaseProfiler service)
T7 sequence (P36888 27-993): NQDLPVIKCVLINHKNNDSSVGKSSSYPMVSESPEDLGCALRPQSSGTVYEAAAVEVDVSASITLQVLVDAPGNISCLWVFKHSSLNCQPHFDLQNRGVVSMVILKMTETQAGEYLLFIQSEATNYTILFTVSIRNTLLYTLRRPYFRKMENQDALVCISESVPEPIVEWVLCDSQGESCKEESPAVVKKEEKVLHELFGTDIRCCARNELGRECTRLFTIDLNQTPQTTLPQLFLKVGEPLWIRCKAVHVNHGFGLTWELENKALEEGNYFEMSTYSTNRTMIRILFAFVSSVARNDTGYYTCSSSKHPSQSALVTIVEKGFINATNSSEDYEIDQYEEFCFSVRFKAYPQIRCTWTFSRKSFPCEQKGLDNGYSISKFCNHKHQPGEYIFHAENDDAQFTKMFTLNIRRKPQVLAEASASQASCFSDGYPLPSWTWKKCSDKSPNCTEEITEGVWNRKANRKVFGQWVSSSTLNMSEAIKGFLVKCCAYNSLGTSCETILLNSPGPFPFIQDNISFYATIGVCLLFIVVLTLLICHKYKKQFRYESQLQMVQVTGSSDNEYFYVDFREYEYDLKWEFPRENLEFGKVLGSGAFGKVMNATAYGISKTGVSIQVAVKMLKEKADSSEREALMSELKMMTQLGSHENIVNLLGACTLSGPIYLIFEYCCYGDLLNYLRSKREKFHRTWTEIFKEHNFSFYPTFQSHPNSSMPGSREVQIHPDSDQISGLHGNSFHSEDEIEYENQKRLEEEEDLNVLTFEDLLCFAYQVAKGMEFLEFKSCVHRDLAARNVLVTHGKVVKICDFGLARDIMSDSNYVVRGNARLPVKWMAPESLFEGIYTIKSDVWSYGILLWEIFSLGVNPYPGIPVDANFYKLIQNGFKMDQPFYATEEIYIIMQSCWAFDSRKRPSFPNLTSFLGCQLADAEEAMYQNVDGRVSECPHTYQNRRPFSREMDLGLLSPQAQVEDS
Procedure: as §1, §2, §3
FLT3(h) was diluted in the buffer (20 mM MOPS, 1 mM EDTA, 0.01% Brij-35, 5% Glycerol, 0.1% β-mercaptoethanol, 1 mg/mL BSAs) to the concentration of 1.01 mg/mL prior to addition to the reaction mix.
as §4, with “solution of Flt3(h) was added” for “solution of HIPK2(h) was added”, “EDTA, and 50 μM EAIYAAPFAKKK, in such” for “EDTA, and 0.33 mg/mL myelin basic protein in such”, “concentration of FLT3(h) was 28.3” for “concentration of HIPK2(h) was 1.4”, “FLT3(h) was 28.3 nM. This” for “HIPK2(h) was 1.4 nM. This”, “cpm/pmol) was 200 μM. After” for “cpm/pmol) was 10 μM. After”

Row | Structure (SMILES) | IC50 [1] | IC50 [2] | IC50 [3] | IC50 [4] | IC50 [5] | IC50 [6] | IC50 [7]
1 | Cn1cc(-c2ccc3occ(-c4ccc5ccccc5c4)c3n2)cn1 [Preparative Example 7A] | < 1 µM | < 0.1 µM | < 0.1 µM | < 1 µM | < 1 µM |  | 
2 | Cc1n[nH]c(C)c1-c1ccc2occ(-c3ccc4ccccc4c3)c2n1 [Preparative Example 7D] | < 1 µM | < 5 µM | < 5 µM | < 5 µM | < 5 µM |  | 
3 | c1ccc(-c2coc3ccc(Nc4ccc(N5CCOCC5)cc4)nc23)cc1 [Preparative Example 8B] |  | < 1 µM |  |  |  | < 5 µM | < 1 µM
4 | CN1CCN(c2ccc(Nc3ccc4occ(-c5ccccc5)c4n3)cc2)CC1 [Preparative Example 8C] |  |  | < 5 µM |  |  | < 5 µM | < 5 µM
5 | c1ccc(-c2coc3ccc(Nc4ccncc4)nc23)cc1 [Preparative Example 8D] |  |  |  |  |  |  | < 5 µM
6 | c1ccc(Nc2ccc3occ(-c4ccccc4)c3n2)cc1 [Preparative Example 8E] |  |  | < 5 µM |  |  | < 5 µM | < 5 µM
7 | Cc1cc(Nc2cc(-c3ccccc3)nc3ccoc23)sn1 [Preparative Example 17E] |  |  |  |  |  | < 5 µM | < 5 µM
